One data set deals with DU145, BT20, H157, DLD1. Briefly: Effect on tumor cell lines, viability by Trypan blue exclusion after 96 hours. Format: cell-based. The settings on record: concentration required for 50% growth inhibition vs vehicle (DMSO) treated cells, doses 10 nM to 5 μM, one class for the four cell lines. Here is the method: The effect of the α,β-unsaturated sulfoxides according to Formula I on tumor cells of prostate, colon, lung and breast origin was examined by utilizing the following cell lines: prostate tumor cell line DU-145; colorectal carcinoma cell line DLD-1; non-small cell lung carcinoma cell line H157; and breast tumor cell line BT-20. BT-20 is an estrogen-unresponsive cell line. BT-20, DLD-1 and H157 were grown in Dulbecco's modified Eagle's medium (DMEM) containing 10% fetal bovine serum supplemented with penicillin and streptomycin. DU145 was cultured in RPMI with 10% fetal bovine serum containing penicillin and streptomycin. NIH/3T3 (normal murine fibroblasts) and HFL-1cells (normal diploid human lung fibroblasts) were grown in DMEM containing 10% calf serum supplemented with penicillin and streptomycin.
Cells were plated at density levels of 1.0×10^5 cells per well in six-well plates. Cell cultures were maintained at 37° C. in a humidified atmosphere of 5% CO2.
Cells were treated with compounds of the invention at doses ranging from 10 nM to 5 μM concentration, and cell viability was determined after 96 hours by the Trypan blue exclusion method.
Values are reported as the GI50, i.e., the concentration (μM) required for 50% growth inhibition as compared to vehicle (DMSO) treated cells. The values reported in Table 7 are: ***=10-100 nM; **=100 nM-1μM; and *=>1μM.
Cells were treated with the test compound at concentrations in the range from 10 nM to 5 μM, and cell viability was determined after 96 hours by the Trypan blue exclusion method.

Where only a bound is given, the exact number is not on record here.

Turning to `COc1cc(OC)c(/C=C/[S+]([O-])Cc2ccc(OC)c(O)c2)c(OC)c1` (stereo not drawn) [Example 31], the melting point (as a rule, the temperature, or range, at which the solid turns liquid) was in the range of 112 to 115 °C. In addition, the GI50 (commonly the concentration that inhibits growth by half) in the data set on DU145, BT20, H157, DLD1 is 10 to 100 nM. In the case of `O=C(O)c1ccc(/C=C/[S+]([O-])Cc2ccc(Cl)cc2)cc1` (stereo not drawn) [Example 32], the melting point fell in the range of 270 to 274 °C. Compound `COc1cc(OC)c(/C=C/[S+]([O-])Cc2ccc(OC)c([N+](=O)[O-])c2)c(OC)c1` (stereo not drawn) [Example 30] yielded a melting point of 140 to 146 °C. In the data set on DU145, BT20, H157, DLD1, this compound displayed a concentration for 50% growth inhibition (GI50) of more than 1000 nM. The matching figures for `COc1cc(OC)c(/C=C/[S+]([O-])Cc2ccc(OC)c(N)c2)c(OC)c1` (stereo not drawn) [Example 33, (E)-2,4,6-trimethoxystyryl-4-methoxy-3-aminobenzylsulfoxide]: 136 to 140 °C and 10 to 100 nM. The matching figures for `COc1ccc(C[S+]([O-])/C=C/c2c(OC)cc(OC)cc2OC)cc1` (stereo not drawn) [Example 29]: 92 to 94 °C and 100 to 1000 nM.
